Test results taken from patent US6858638B2, “Substituted indazoles, compositions containing them, method of production and use” (Aventis Pharma S.A., priority 2002, dated 2005).

Key:
Format in all cases: biochemical
human FAK = target: T1, human FAK (Homo sapiens, UniProt Q05397); assay: FAK autophosphorylation inhibition, time resolved fluorescence (HTRF) assay; details: for inhibition at 30 µM: 30 μM (values marked *), read-out: FAK % inhib at 30* μM; for inhibition at 10 µM: read-out: FAK % inhib at 10 μM
T1 construct: The complete cDNA of human FAK; made in house; host or cells: baculovirus expression system (vector pFastBac HTc)
T1 sequence (Q05397 whole entry): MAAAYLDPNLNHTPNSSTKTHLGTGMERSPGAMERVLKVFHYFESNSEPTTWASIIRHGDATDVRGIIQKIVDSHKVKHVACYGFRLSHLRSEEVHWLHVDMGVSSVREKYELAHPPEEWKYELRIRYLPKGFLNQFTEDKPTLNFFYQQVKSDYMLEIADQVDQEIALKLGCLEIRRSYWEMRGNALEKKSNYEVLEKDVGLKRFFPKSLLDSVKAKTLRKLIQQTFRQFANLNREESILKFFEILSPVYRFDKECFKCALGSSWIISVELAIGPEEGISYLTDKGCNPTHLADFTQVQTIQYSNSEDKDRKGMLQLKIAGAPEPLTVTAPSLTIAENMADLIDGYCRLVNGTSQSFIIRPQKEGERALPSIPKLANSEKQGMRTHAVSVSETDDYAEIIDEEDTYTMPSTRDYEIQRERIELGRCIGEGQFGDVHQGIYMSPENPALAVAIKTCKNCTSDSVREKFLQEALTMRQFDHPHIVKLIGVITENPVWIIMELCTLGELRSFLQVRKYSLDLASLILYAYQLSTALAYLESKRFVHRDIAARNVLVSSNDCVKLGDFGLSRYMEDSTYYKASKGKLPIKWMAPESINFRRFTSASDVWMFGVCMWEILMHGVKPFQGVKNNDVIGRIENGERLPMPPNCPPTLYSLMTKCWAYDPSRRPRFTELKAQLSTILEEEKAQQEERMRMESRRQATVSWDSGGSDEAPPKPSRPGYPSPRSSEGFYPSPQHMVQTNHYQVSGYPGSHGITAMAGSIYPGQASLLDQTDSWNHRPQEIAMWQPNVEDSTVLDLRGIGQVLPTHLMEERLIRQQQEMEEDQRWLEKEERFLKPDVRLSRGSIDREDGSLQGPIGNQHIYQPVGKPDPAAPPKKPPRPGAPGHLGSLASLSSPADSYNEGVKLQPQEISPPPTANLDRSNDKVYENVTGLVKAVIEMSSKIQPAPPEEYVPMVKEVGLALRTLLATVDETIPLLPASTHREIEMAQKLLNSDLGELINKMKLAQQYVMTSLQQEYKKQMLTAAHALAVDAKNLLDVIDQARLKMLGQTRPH
Method: The inhibitory activity of the compounds on FAK is determined by measuring the inhibition of the autophosphorylation of the enzyme using a time resolved fluorescence (HTRF) assay.
The complete cDNA of human FAK, the N-terminal end of which was labeled with histidine, was cloned into a baculovirus expression vector pFastBac HTc. The protein was expressed and purified to approximately 70% homogeneity.
The kinase activity is determined by incubating the enzyme (6.6 μg/ml) with various concentrations of test compound in a 50 mM Hepes buffer, pH=7.2, containing 10 mM MgCl2, 100 μM Na3VO4 and 15 μM d'ATP for 1 hour at 37° C. The enzyme reaction is stopped by adding Hepes buffer, pH=7.0, containing […], 133 mM EDTA and 0.1% BSA, and the labeling is carried out, over 1 to 2 hours at ambient temperature, by adding to this buffer an anti-Histidine antibody labeled with XL665 and a monoclonal antibody phosphospecific for tyrosine, conjugated to europium cryptate (Eu-K). The characteristics of the two fluorophores are available in G. Mathis et al., Anticancer Research, 1997, 17, pages 3011-3014. The transfer of energy from the excited europium cryptate to the XL665 acceptor is proportional to the degree of autophosphorylation of FAK. The long-lived signal specific for XL-665 is measured in a Packard Discovery plate counter. All the assays are carried out in duplicate and the mean of the two assays is calculated. The inhibition of the FAK autophosphorylation activity with compounds of the invention is expressed as percentage inhibition compared to a control whose activity is measured in the absence of test compound. The [signal at 665 nm/signal at 620 nm] ratio is used for the calculation of the % inhibition.

human KDR enzyme = target: T2, human KDR enzyme (Homo sapiens, UniProt P35968); assay: KDR substrate (PLCγ) phosphorylation, scintillation assay; details: 10 μM; for inhibition at 10 µM: read-out: KDR % inhib at 10 μM
T2 construct: The cytoplasmic domain of the human KDR enzyme; GST; made in house; host or cells: SF21 insect cells (baculovirus)
T2 sequence (P35968 786-1356 limits assumed): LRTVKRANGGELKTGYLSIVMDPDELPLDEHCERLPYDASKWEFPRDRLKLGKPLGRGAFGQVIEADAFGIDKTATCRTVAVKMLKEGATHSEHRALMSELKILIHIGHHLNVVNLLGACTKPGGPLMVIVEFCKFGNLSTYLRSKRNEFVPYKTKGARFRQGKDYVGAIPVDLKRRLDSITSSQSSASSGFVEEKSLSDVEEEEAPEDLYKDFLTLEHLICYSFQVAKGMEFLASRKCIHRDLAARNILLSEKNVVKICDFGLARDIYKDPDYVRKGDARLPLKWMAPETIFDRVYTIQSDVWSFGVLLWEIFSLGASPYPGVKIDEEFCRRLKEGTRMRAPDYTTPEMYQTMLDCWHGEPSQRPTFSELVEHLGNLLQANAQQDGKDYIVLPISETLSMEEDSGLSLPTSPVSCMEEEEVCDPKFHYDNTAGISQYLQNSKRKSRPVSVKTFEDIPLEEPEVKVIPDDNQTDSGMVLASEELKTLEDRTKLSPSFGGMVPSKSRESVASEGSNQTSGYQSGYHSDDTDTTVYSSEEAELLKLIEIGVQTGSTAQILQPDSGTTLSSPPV
Method: The inhibitory effect of the compounds is determined in an assay of substrate phosphorylation by the KDR enzyme in vitro using a scintillation technique (96-well plate, NEN).
The cytoplasmic domain of the human KDR enzyme was cloned in the form of a GST fusion into the baculovirus expression vector pFastBac. The protein was expressed in SF21 cells and purified to approximately 60% homogeneity.
The KDR kinase activity is measured in 20 mM MOPS, 10 mM MgCl2, 10 mM MnCl2, 1 mM DTT, 2.5 mM EGTA, 10 mM β-glycerophosphate, pH=7.2, in the presence of 10 mM MgCl2, 100 μM Na3VO4, 1 mM NaF. 10 μl of the compound are added to 70 μl of kinase buffer containing 100 ng of KDR enzyme at 4° C. The reaction is triggered by adding 20 μl of solution containing 2 μg of substrate (SH2-SH3 fragment of PLCγ expressed in the form of a GST fusion protein), 2 μCi γ^33P[ATP] and 2 μM cold ATP. After incubation for 1 hour at 37° C., the reaction is stopped by adding 1 volume (100 μl) of 200 mM EDTA. The incubation buffer is removed and the wells are washed three times with 300 μl of PBS. The radioactivity is measured in each well using Top Count NXT radioactivity counter (Packard).
The background noise is determined by measuring the radioactivity in four different wells containing the radioactive ATP and the substrate alone.
A control for total activity is measured in four different wells containing all the reagents (γ^33P-[ATP], KDR and PLCγ substrate) but in the absence of compound.
The inhibition of the KDR activity with the compound of the invention is expressed as percentage inhibition of the control activity determined in the absence of compound.
The compound SU5614 (Calbiochem) (1 μM) is included in each plate as an inhibition control.

Aurora2 kinase = target: T3, Aurora2 kinase (Homo sapiens, UniProt O14965); assay: Aurora2 kinase radioactivity scintillation assay using nickel chelate (NuMA substrate); details: 10 μM; for inhibition at 10 µM: read-out: Aurora2 % inhib at 10 μM
T3 construct: A complete recombinant Aurora2 enzyme; His tag (N); made in house; host or cells: E. coli
T3 sequence (O14965 1-403): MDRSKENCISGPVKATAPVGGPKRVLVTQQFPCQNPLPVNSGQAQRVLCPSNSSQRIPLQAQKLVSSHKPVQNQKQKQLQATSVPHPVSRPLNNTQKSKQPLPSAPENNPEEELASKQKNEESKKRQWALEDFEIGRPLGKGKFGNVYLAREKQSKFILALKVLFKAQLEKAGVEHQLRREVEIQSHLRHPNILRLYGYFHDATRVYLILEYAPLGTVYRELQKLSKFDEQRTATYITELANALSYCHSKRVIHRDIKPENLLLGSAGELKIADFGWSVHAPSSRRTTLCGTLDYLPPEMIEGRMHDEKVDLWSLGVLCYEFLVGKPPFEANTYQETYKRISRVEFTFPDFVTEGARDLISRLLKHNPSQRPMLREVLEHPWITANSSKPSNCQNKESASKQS
Method: The inhibitory effect of compounds with respect to the Aurora2 kinase is determined with a radioactivity scintillation assay using nickel chelate.
A complete recombinant Aurora2 enzyme, the N-terminal end of which was labeled with histidine, was expressed in E. coli and purified to a quality close to homogeneity.
The C-terminal fragment (Q1687-H2101) of a NuMA (Nuclear protein that associates with the Mitotic Apparatus) expressed in E. coli, and the N-terminal end of which was labeled with histidine, was purified by nickel chelate chromatography and used as substrate in the Aurora2 kinase assay. In order to determine the kinase activity, the NuMA substrate is equilibrated by chromatography on a Pharmacia PD10 column, in a buffer (50 mM Tris HCl, pH7.5, 50 mM NaCl, 10 mM MgCl2) to which 10% (v/v) of glycerol and 0.05% (w/v) of NP40 have been added.
The kinase acivitity of Aurora2 is measured by scintillation with nickel chelate (New England Nuclear, model SMP107). Each well contains 100 μl of the following solution: 0.02 μM of Aurora2; 0.5 μM of NuMA substrate; 1 μM of ATP to which 0.5 μCi of ATP-[^33P] has been added. The solutions are incubated for 30 minutes at 37° C. The assay buffer is then removed and the wells are rinsed twice with 300 μl of kinase buffer. The radioactivity is measured in each well using a Packard Model Top Count NXT device.
The background noise is deduced from the measurement of radioactivity by measuring, in duplicate, in wells containing the radioactive ATP alone containing buffered kinase treated in the same way as the other samples.
The activity of the control is determined by measuring, in duplicate, the radioactivity in the complete assay mixture (ATP, Aurora2 and the NuMA substrate) in the absence of test compound.
The inhibition of the Aurora2 with a compound of the invention is expressed as percentage inhibition of the control activity in the absence of test compound. Staurosporine is added to each plate as an inhibition control.

[1] = 10 μM (values without asterisk)

Compound	inhibition at 10 µM (human KDR enzyme) [%]	inhibition at 10 µM (human FAK; [1]) [%]	inhibition at 10 µM (Aurora2 kinase) [%]	also measured
O=S(=O)(Nc1ccc2[nH]nc(Cl)c2c1)c1ccc(Cl)c(Cl)c1 [Example 2, N-(3-Chloro-1H-indazol-5-yl)-3,4-dichlorobenzenesulfonamide]	43	–	–	inhibition at 30 µM (human FAK): 75%
CS(=O)(=O)c1ccccc1S(=O)(=O)Nc1ccc2[nH]nc(C#N)c2c1 [Example 5, N-(3-Cyano-1H-indazol-5-yl)-2-methylsulfonylbenzenesulfonamide]	26	–	–	inhibition at 30 µM (human FAK): 80%
O=S(=O)(Nc1cccc(F)c1)c1ccc2[nH]ncc2c1 [Example 11, N-(3-Fluorophenyl)-(1H-indazol-5-yl)sulfonamide]	7	59	–	–
O=S(=O)(Nc1ccc2[nH]nc(I)c2c1)c1cccc(F)c1 [Example 12, 3-Fluoro-N-(3-iodo-1H-indazol-5-yl)benzenesulfonamide]	39	–	–	inhibition at 30 µM (human FAK): 92%
O=S(=O)(Nc1ccc2[nH]ncc2c1)c1cccc(F)c1 [Example 15, 3-Fluoro-N-(1H-indazol-5-yl)benzenesulfonamide]	13	–	–	inhibition at 30 µM (human FAK): 67%
O=S(=O)(Nc1ccc2[nH]nc(O)c2c1)c1cccc(F)c1 [Example 16, 3-Fluoro-N-(3-hydroxy-1H-indazol-5-yl)benzenesulfonamide]	8	58	–	–
O=S(=O)(Oc1ccc2[nH]ncc2c1)c1cccc(F)c1 [Example 17, 1H-Indazol-5-yl 3-fluorobenzenesulfonate]	46	59	–	–
CNC(=O)c1n[nH]c2ccc(NS(=O)(=O)c3cccc(F)c3)cc12 [Example 19, N-Methyl-5-(3-fluorobenzenesulfonylamino)-1H-indazole-3-carboxamide]	73	85	–	–
CS(=O)(=O)c1ccccc1S(=O)(=O)Nc1ccc2[nH]nc(C(N)=O)c2c1 [Example 20]	28	76	–	–
NC(=O)c1n[nH]c2ccc(NS(=O)(=O)c3cccc(F)c3)cc12 [Example 21]	80	–	–	inhibition at 30 µM (human FAK): 76%
O=C(Nc1ccccc1)c1n[nH]c2ccc(NS(=O)(=O)c3cccc(F)c3)cc12 [Example 22, N-Phenyl-5-(3-fluorobenzenesulfonylamino)-1H-indazole-3-carboxamide]	18	89	84	–
CS(=O)(=O)Nc1n[nH]c2ccc(NS(=O)(=O)c3cccc(F)c3)cc12 [Example 27, 3-Fluoro-N-(3-methylsulfonylamino-1H-indazol-5-yl)benzenesulfonamide]	13	6	76	–
CC(=O)Nc1n[nH]c2ccc(NS(=O)(=O)c3cccc(F)c3)cc12 [Example 28, N-[5-(3-Fluorobenzenesulfonylamino)-1H-indazol-3-yl)acetamide]	24	84	92	–
CC(=O)Nc1ccccc1-c1n[nH]c2ccc(NS(=O)(=O)c3cccc(F)c3)cc12 [Example 47, N-{2-[5-(3-Fluorobenzenesulfonylamino)-1H-indazol-3-yl]phenyl}acetamide]	25	32	65	–
CS(=O)(=O)c1ccccc1S(=O)(=O)Nc1ccc2[nH]nc(-c3cccc(C(=O)O)c3)c2c1 [Example 56, 3-[5-(2-Methylsulfonylbenzenesulfonamino)-1H-indazol-3-yl]benzoic acid]	82	81	87	–
CS(=O)(=O)c1ccccc1S(=O)(=O)Nc1ccc2[nH]nc(-c3cccc4cccnc34)c2c1 [Example 67, 2-Methylsulfonyl-N-(3-quinolin-8-yl-1H-indazol-5-yl)benzenesulfonamide]	28	79	90	–
O=S(=O)(Nc1ccc2[nH]nc(-c3cc4ccccc4[nH]3)c2c1)c1cccs1 [Example 87, {N-[3-(1H-indol-2-yl)-1H-indazol-5-yl]}thiophene-2-sulfonamide]	100	91	100	–
O=S(=O)(Nc1ccc2[nH]nc(-c3ccccc3)c2c1)c1ccc(Br)cc1 [Example 116, 4-Bromo-N-(3-phenyl-1H-indazol-5-yl)-benzenesulfonamide]	81	20	69	–
CC(=O)Nc1ccc(S(=O)(=O)Nc2ccc3[nH]nc(-c4ccccc4)c3c2)cc1 [Example 118, N-[4-(3-Phenyl-1H-indazol-5-ylsulfamoyl)phenyl]acetamide]	–	–	–	FAK % inhib at 10 μM (human FAK; 10 μM (values without asterisk), 10 µM): 8%; KDR % inhib at 10 μM (human KDR enzyme): 53%; Aurora2 % inhib at 10 μM (Aurora2 kinase): 52%
CS(=O)(=O)c1ccccc1S(=O)(=O)Oc1ccc2[nH]nc(-c3nc4ccccc4[nH]3)c2c1 [Example 226, 3-(1H-Benzimidazol-2-yl)-1H-indazol-5-yl-2-methanesulfonylbenzenesulfonate]	–	–	100	–
CS(=O)(=O)c1ccccc1S(=O)(=O)Oc1ccc2[nH]nc(-c3cc4ccccc4[nH]3)c2c1 [Example 227]	–	–	100	–
